Results from PMC10353187, “Discovery of a new potent oxindole multi-kinase inhibitor among a series of designed 3-alkenyl-oxindoles with ancillary carbonic anhydrase inhibitory activity as antiproliferative agents” (BMC Chemistry, 2023).

Assays:
[1] = target: hCA IX (Homo sapiens, UniProt Q16790); assay: Stopped flow CO2 hydrase assay
[2] = test system: UO-31; assay: NCI-60 single-dose antiproliferative assay (SRB); type: cell-based, human; conditions: Homo sapiens, UO-31, 10 μM single dose; UO-31, Renal cancer; read-out: Cell Growth inhibition Percent
In short: (§1)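 Single 10 μM dose, 48 h at 37 °C in RPMI 1640 with 5% FBS, cells seeded 24 h before dosing. TCA fixation, sulforhodamine B staining, absorbance 515 nm; percent growth derived against time-zero and untreated control plates, triplicate wells.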

[3] = target: hCA XII (Homo sapiens, UniProt O43570); assay: Stopped flow CO2 hydrase assay
[4] = target: hCA II (Homo sapiens, UniProt P00918); assay: Stopped flow CO2 hydrase assay
[5] = target: hCA I (Homo sapiens, UniProt P00915); assay: Stopped flow CO2 hydrase assay
[6] = test system: NCI-H23; assay: NCI-60 single-dose antiproliferative assay (SRB); type: cell-based; conditions: Homo sapiens; 10 μM single dose; NCI-H23, Non-small cell lung cancer; read-out: Cell Growth inhibition Percent
In short: (§2)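 Single dose 10 µM (final), 48 h, 37 °C, 5% CO2; RPMI 1640/5% FBS. Endpoint: TCA fixation, 0.4% SRB, absorbance 515 nm. % growth = (Ti–Tz)/(C–Tz)×100, or (Ti–Tz)/Tz×100 when Ti < Tz; reported as GI%.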

[7] = test system: IGROV1; assay: NCI-60 single-dose antiproliferative assay (SRB); type: cell-based; conditions: Homo sapiens, IGROV-1; 10 μM single dose; IGROV1, Ovarian Cancer; read-out: Cell Growth inhibition Percent
In short: as §1

[8] = test system: SNB-75; assay: NCI-60 single-dose antiproliferative assay (SRB); type: cell-based; conditions: Homo sapiens; 10 μM single dose; SNB-75, CNS cancer; read-out: Cell Growth inhibition Percent
In short: as §1

[9] = test system: KM12; assay: NCI-60 single-dose antiproliferative assay (SRB); type: cell-based; conditions: Homo sapiens; 10 μM single dose; KM12, Colon cancer; read-out: Cell Growth inhibition Percent
In short: as §2

[10] = test system: NCI-H226; assay: NCI-60 single-dose antiproliferative assay (SRB); type: cell-based; conditions: Homo sapiens; 10 μM single dose; NCI-H226, Non-small cell lung cancer; read-out: Cell Growth inhibition Percent
In short: as §1

[11] = test system: MCF7; assay: NCI-60 single-dose antiproliferative assay (SRB); type: cell-based; conditions: Homo sapiens; 10 μM single dose; MCF7, Breast cancer; read-out: Cell Growth inhibition Percent
In short: as §1

[12] = test system: SK-MEL-5; assay: NCI-60 single-dose antiproliferative assay (SRB); type: cell-based; conditions: Homo sapiens; 10 μM single dose; SK-MEL-5, Melanoma; read-out: Cell Growth inhibition Percent
In short: as §1

[13] = test system: EKVX; assay: NCI-60 single-dose antiproliferative assay (SRB); type: cell-based; conditions: Homo sapiens, 10 μM single dose, Non-small cell lung cancer, read-out: Cell Growth inhibition Percent
In short: as §1

[14] = test system: SR; assay: NCI-60 single-dose antiproliferative assay (SRB); type: cell-based; conditions: Homo sapiens, 10 μM single dose, Leukemia, read-out: Cell Growth inhibition Percent
In short: as §1

[15] = test system: MDA-MB-231/ATCC; assay: NCI-60 single-dose antiproliferative assay (SRB); type: cell-based; conditions: Homo sapiens, 10 μM single dose, Breast cancer, read-out: Cell Growth inhibition Percent
In short: as §1

[16] = test system: HOP-62; assay: NCI-60 single-dose antiproliferative assay (SRB); type: cell-based; conditions: Homo sapiens; 10 μM single dose; HOP-62, Non-small cell lung cancer; read-out: Cell Growth inhibition Percent
In short: as §1

[17] = test system: LOX IMVI; assay: NCI-60 single-dose antiproliferative assay (SRB); type: cell-based; conditions: Homo sapiens, 10 μM single dose, Melanoma, read-out: Cell Growth inhibition Percent
In short: as §1

[18] = test system: NCI 60 cancer cell lines; assay: NCI-60 single-dose antiproliferative assay, mean over panel; type: cell-based; conditions: Homo sapiens; 10 μM single dose; mean over all NCI panel cell lines; read-out: MEAN % Growth inhibition
Description: From the newly synthesized compounds, eleven compounds (4c, 4d, 5, 9a, 9b, 11a, 11b, 13b, 13c, 15b, and 15c) were selected by the National Cancer Institute (NCI) Developmental Therapeutics Program (DTP), Bethesda, Maryland, USA for the in vitro anti-proliferative activity evaluation. The selected compounds were examined at 10 μM dose against the NCI 60-cell line panel. This panel consists of nine cell line groups of leukemia, non-small cell lung carcinoma (NSCLC), melanoma, colon, CNS, ovarian, renal, prostate, and breast cancers. The results are reported as mean-graph of the percent growth relative to control and presented as percentage growth inhibition (GI%), furthermore, mean GI% of each compound over all panel cell lines was calculated (Table 1; Additional file 1; S3: In vitro biological activity).
From the newly synthesized compounds, eleven compounds were selected by the National Cancer Institute (NCI) Developmental Therapeutics Program (DTP), Bethesda, Maryland, USA for the in vitro anti-proliferative activity evaluation (For further details see supplementary materials).
NCI In-vitro Cancer Screening is a two-phase procedure that starts with the assessment of all compounds against the sixty NCI cell line panel depicting leukemia, NSCLC, CNS cancer, melanoma, prostate cancer, breast cancer, renal cancer, colon cancer and ovarian cancer cell lines at a single point of 10μM. The output from the single-dose screen is reportable as a mean graph.
The human tumor cell lines of the cancer screening panel were grown in RPMI 1640 medium containing 5% fetal bovine serum and 2 mM L-glutamine. For a typical screening experiment, cells were inoculated into 96 well microtiter plates in […] at plating densities ranging from 5000 to 40,000 cells/well depending on the doubling time of individual cell lines. After cell inoculation, the microtiter plates were incubated at 37 °C, 5% CO2, 95% air and 100% relative humidity for 24 h prior to addition of experimental drugs. After 24 h, two plates of each cell line were fixed in situ with trichloroacetic acid (TCA), to represent a measurement of the cell population for each cell line at the time of drug addition (Tz). Experimental drugs were solubilized in dimethyl sulfoxide at 400-fold the desired final maximum test concentration and stored frozen prior to use. At the time of drug addition, an aliquot of frozen concentrate was thawed and diluted to twice the desired final maximum test concentration with complete medium containing 50 µg/ml gentamicin. Aliquot of 100 µl of the drug dilution was added to the appropriate microtiter wells already containing 100 µl of medium, resulting in the required final drug concentration (10 µM). Triplicate wells were prepared for each individual dose. Following drug addition, the plates were incubated for an additional 48 h at 37 °C, 5% CO2, 95% air, and 100% relative humidity. For adherent cells, the assay was terminated by the addition of cold TCA. Cells were fixed in situ by the gentle addition of 50 µl of cold 50% (w/v) TCA (final concentration, 10% TCA) and incubated for 60 min at 4 °C. The supernatant was discarded, and the plates were washed five times with tap water and air dried. Sulforhodamine B (SRB) solution (100 µl) at 0.4% (w/v) in 1% acetic acid was added to each well, and plates were incubated for 10 min at room temperature. After staining, unbound dye was removed by washing five times with 1% acetic acid and the plates were air dried. Bound stain was subsequently solubilized with 10 mM trizma base, and the absorbance was read on an automated plate reader at a wavelength of 515 nm. For suspension cells, the methodology was the same except that the assay was terminated by fixing settled cells at the bottom of the wells by gently adding 50 µl of 80% TCA (final concentration, 16% TCA). […]

Sequence of hCA XII (O43570 25-354): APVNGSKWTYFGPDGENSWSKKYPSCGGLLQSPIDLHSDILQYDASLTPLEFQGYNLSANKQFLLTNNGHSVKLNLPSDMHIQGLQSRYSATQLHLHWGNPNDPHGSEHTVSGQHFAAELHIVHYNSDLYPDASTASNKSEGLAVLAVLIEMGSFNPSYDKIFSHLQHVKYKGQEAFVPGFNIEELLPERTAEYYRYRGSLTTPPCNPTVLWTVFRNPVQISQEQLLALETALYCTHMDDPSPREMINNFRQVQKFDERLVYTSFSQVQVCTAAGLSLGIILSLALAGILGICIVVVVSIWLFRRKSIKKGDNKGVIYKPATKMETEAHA
Sequence of hCA I (P00915 whole entry): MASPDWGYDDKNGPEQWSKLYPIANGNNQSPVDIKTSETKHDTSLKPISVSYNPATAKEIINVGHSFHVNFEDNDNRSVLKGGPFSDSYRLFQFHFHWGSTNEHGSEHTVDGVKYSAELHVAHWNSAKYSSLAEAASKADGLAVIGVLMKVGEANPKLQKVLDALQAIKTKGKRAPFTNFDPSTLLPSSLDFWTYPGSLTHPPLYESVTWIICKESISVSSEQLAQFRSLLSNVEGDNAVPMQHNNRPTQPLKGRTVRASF

- melting point: 195 to 200 °C
- Ki [1]: 0.217 µM
- Selectivity ratio I/IX ([1]; Ki hCA I / Ki hCA IX): 1.48
- Selectivity ratio II/IX ([1]; Ki hCA II / Ki hCA IX): 3.43
- Ki [3]: 0.0786 µM
- Selectivity ratio I/XII ([3]; Ki hCA I / Ki hCA XII): 4.08
- Selectivity ratio II/XII ([3]; Ki hCA II / Ki hCA XII): 9.50
- Ki [4]: 0.746 µM
- Ki [5]: 0.321 µM
SMILES: NS(=O)(=O)c1ccc(NCc2ccc(NC=C3C(=O)Nc4ccccc43)cc2)cc1 [Compound 11a, 4-{[4-({[2-Oxoindolin-3-ylidene]methyl}amino)benzyl]amino}benzenesulfonamide]
- inhibition at 10 µM [2]: 44%
- inhibition at 10 µM [6]: 12%
- inhibition at 10 µM [7]: 32.7%
- inhibition at 10 µM [8]: 32.8%
- inhibition at 10 µM [9]: 13.9%
- inhibition at 10 µM [10]: 19.1%
- inhibition at 10 µM [11]: 23%
- inhibition at 10 µM [12]: 5.94%
- inhibition at 10 µM [13]: 47.4%
- inhibition at 10 µM [14]: 18.7%
- inhibition at 10 µM [15]: 16.5%
- inhibition at 10 µM [16]: 30.5%
- inhibition at 10 µM [17]: 3.3%
- inhibition at 10 µM [18]: 2.58%
